Read-outs that look alike come from different tables or passages of the source.
What was measured:
[1] = Dog urinary excretion and metabolite profiles after oral capsule of [14C]DCDQ; format: in vivo, beagle dogs
Description: Blood samples were collected from the jugular vein at 2, 4, 8, 24 and 48 hour after dose administration into tubes containing potassium EDTA as the anticoagulant and then placed on ice. Aliquots of 50 μL were removed for combustion and determination of radioactivity content. Plasma was immediately obtained from the remaining blood by centrifugation at 4° C. Urine samples were collected into tubes on dry ice at intervals of 0-8, 8-24 and 24-48 hour post-dose. Fecal samples were collected at intervals of 0-8, 8-24 and 24-48 hour post-dose at room temperature, and were homogenized. The biological specimens were stored at approximately −70° C. until analysis.
(§1) For plasma profiles, a TopCount NXT radiometric microplate reader (Perkin Elmer) was used to analyze the radioactivity in collected HPLC fractions. The limit of detection by TopCount was about 1 ng equivalent/mL. A Flo-One β Model A525 radioactivity detector (Perkin Elmer) with a 250 μL LQTR flow cell was used to acquire data for urine and fecal samples. The flow rate of Ultima Flow M scintillation fluid was 1 mL/min, providing a mixing ratio of scintillation cocktail to mobile phase of 5:1. The limits of detection by Flo-One detector were about 200 ng equivalents/mL for urine and 12 ng equivalents/g for feces.
Urine was analyzed for radioactivity concentration and analyzed by HPLC with radioactivity flow detection for metabolite profiles by direct injection to the HPLC column. LC/MS analyses for metabolite identification were also carried out with urine samples.
(§2) A Waters model 2690 HPLC system (Waters Corp., Milford, Mass.) with a built-in autosampler was used for analysis. Separations were accomplished on a Phenomenex Luna C18(2) column (150×2.0 mm, 5 μm) (Phenomenex, Torrance, Calif.). The sample chamber of the autosampler was maintained at 4° C., while the column was at ambient temperature of about 20° C. A variable wavelength UV detector set to monitor 250 nm and a Flo-One β Model A525 radioactivity detector were used for data acquisition. The HPLC mobile phase consisted of 10 mM ammonium acetate, pH 4.5 (A) and acetonitrile (B), and was delivered at 0.2 mL/min. Chromatographic condition A was used for dose analysis, while condition B was used for analysis of urine and plasma, brain and fecal extracts.

[2] = Dog plasma metabolite profiles after single 15 mg/kg oral capsule of [14C]DCDQ; format: in vivo, beagle dogs; settings: for concentration at 2 h / concentration at 4 h / concentration at 8 h / concentration at 24 h: male, beagle, dog, plasma, oral, 15 mg/kg, read-out: Estimated plasma concentration in dogs
Description: as §1
Plasma samples were analyzed for metabolite profiles by HPLC. Aliquots of plasma were mixed with two volumes of cold methanol containing 0.1% trifluoroacetic acid (TFA), placed on ice for about 2 minutes and then centrifuged. The supernatant fluid was transferred to a clean tube and evaporated at 22° C. under nitrogen in a Zymark TurboVap LV (Caliper Life Sciences, Hopkinton, Mass.) to a volume of about 0.3 mL. The residue was centrifuged, the supernatant volume measured and extraction efficiency determined by analysis of duplicate 20 μL aliquots for radioactivity. A 200 μL aliquot of the supernatant was injected onto the HPLC column and the effluent was collected at 20 second intervals into 96-well Lumaplates (Perkin Elmer). The plates were dried overnight in an oven at 40° C. and analyzed by a TopCount. Plasma extracts were also analyzed by LC/MS.
as §2

[3] = Incubation of [14C]DCDQ with rat liver microsomes; format: in vitro ADME, Sprague Dawley rats; settings: UDPGA, 56 μM DCDQ
Description: [^14C]DCDQ was mixed with non-radiolabeled DCDQ (1:3 or 1:5) in the incubations. Microsomal incubations consisted of [^14C]DCDQ, magnesium chloride (10 mM) and liver microsomes incubated in 0.5 mL of 0.1 M potassium phosphate buffer, pH 7.4. [^14C]DCDQ (20 μL) in water was added to the incubation tubes containing buffer, magnesium chloride solution and microsomes. After mixing, the tubes were pre-incubated for 2 minutes in a shaking water bath at 37° C. The reactions were initiated by the addition of UDPGA or the NADPH regenerating system. UDPGA was added to incubations as a 50 μL aliquot of a 20 mM solution in water, to give a final concentration of 2 mM. An NADPH regenerating system (30 μL) was added to incubations to evaluate CYP450-mediated metabolism. The NADPH regenerating system consisted of glucose-6-phosphate (2 mg/mL), glucose-6-phosphate dehydrogenase (0.8 units/mL) and NADP^+ (2 mg/mL). Control incubations were conducted under the same conditions, but without the NADPH generating system, UDPGA or microsomes. All incubations were performed in duplicate. Incubations were stopped by the addition of 0.5 mL ice-cold methanol. Samples were vortex-mixed. Denatured proteins were separated by centrifugation at 4300 rpm and 4° C. for 10 minutes (Model T21 super centrifuge, Sorvall). The protein pellets were extracted with 0.5 mL of methanol. The supernatant was combined for each sample, mixed and evaporated to a volume of about 0.3 mL under a nitrogen stream in a Zymark TurboVap LV evaporator (Caliper Life Science, Hopkinton, Mass.). The concentrated sample was centrifuged and aliquots were radioassayed and analyzed by HPLC. This method recovered an average of 92.1% of the radioactivity from the reaction mixture.
To evaluate species differences in cytochrome P450- and UGT-mediated metabolism, [^14C]DCDQ was incubated for 20 minutes with 0.5 mg/mL liver microsomal proteins from mice, rats, dogs or humans in the presence of the NADPH regenerating system or UDPGA. The assay conditions were the same as described above, and DCDQ concentrations were 12 μM and 56 μM for cytochrome P450- and UGT-mediated metabolism, respectively.
A Waters model 2690 HPLC system (Waters Corp., Milford, Mass.) with a built-in autosampler was used for analysis. Separations were accomplished on a Phenomenex Luna C18(2) column (2×150 mm, 5 μm) (Phenomenex, Torrance, Calif.) coupled with a filter (4×2 mm) cartridge. A variable wavelength UV detector set to monitor 250 nm and Flo-One β Model A525 radioactivity flow detector (Perkin Elmer) with a 250 μL LQTR flow cell were used for data acquisition. The flow rate of Ultima Flow M scintillation fluid was 1 mL/min, providing a mixing ratio of scintillation cocktail to mobile phase of 5:1. […]

Chromatographic distribution of radioactivity in dog urine ([1]; 24-48 hr, Mean) [%]	Chromatographic distribution of radioactivity in dog urine ([1]; 24-48 hr, dog 1) [%]	Chromatographic distribution of radioactivity in dog urine ([1]; 24-48 hr, dog 2) [%]	Chromatographic distribution of radioactivity in dog urine ([1]; 24-48 hr, dog 3) [%]	Chromatographic distribution of radioactivity in dog urine ([1]; 24-48 hr, dog 4) [%]	Estimated plasma concentration in dogs ([2]; 2 hr, dog 1)	Chromatographic distribution of radioactivity in dog plasma ([2]; 4 hr, dog 2) [%]	Estimated plasma concentration in dogs ([2]; 8 hr, dog 2)	Estimated plasma concentration in dogs ([2]; 8 hr, dog 3)	Chromatographic distribution of radioactivity in dog plasma ([2]; 24 hr, dog 1) [%]	Chromatographic distribution of radioactivity in dog plasma ([2]; 24 hr, dog 2) [%]	Estimated plasma concentration in dogs ([2]; 48 hr, dog 1)	Estimated plasma concentration in dogs ([2]; 48 hr, dog 2)	Estimated plasma concentration in dogs ([2]; 48 hr, dog 3)	concentration at 4 h ([2]; 4 hr, dog 2) [ng/mL]	concentration at 24 h ([2]; 24 hr, dog 1) [ng/mL]	Compound	Chromatographic distribution of radioactivity in dog urine ([1]; 8-24 hr, dog 1) [%]	Chromatographic distribution of radioactivity in dog urine ([1]; 8-24 hr, dog 3) [%]	Chromatographic distribution of radioactivity in dog plasma ([2]; 2 hr, dog 2) [%]	Chromatographic distribution of radioactivity in dog plasma ([2]; 8 hr, dog 1) [%]	further results
4.7	5.8	3.5	4.3	5.9	BQL	13	BQL	BQL	17	5.6	BQL	BQL	BQL	215	258	O=C(O)[C@H]1O[C@@H](OC(=O)N2CCN3C[C@@H]4CCC[C@@H]4c4cccc(c43)C2)[C@H](O)[C@@H](O)[C@@H]1O [Metabolite M6, carbamoyl glucuronide of DCDQ]	6.1	3.6	19	7.0	Chromatographic distribution of radioactivity in dog urine ([1]; 0-8 hr, dog no. not printed (dog 1 by footnote a)): 13%; Chromatographic distribution of radioactivity in dog urine ([1]; 8-24 hr, Mean): 5.8%; Chromatographic distribution of radioactivity in dog urine ([1]; 8-24 hr, dog 2): 7.6%; Estimated plasma concentration in dogs ([2]; 4 hr, dog 1): BQL; Estimated plasma concentration in dogs ([2]; 24 hr, dog 3): BQL; concentration at 2 h ([2]; 2 hr, dog 2): 239 ng/mL; concentration at 8 h ([2]; 8 hr, dog 1): 37.9 ng/mL; concentration at 24 h ([2]; 24 hr, dog 2): 62.1 ng/mL; metabolite detected in microsomal incubation [3]: not mouse or rat
5.9	5.0	6.2	9.2	3.4	BQL	7.8	BQL	BQL	13	6.7	BQL	BQL	BQL	127	202	O=C1CC[C@@H]2c3cccc4c3N(CCNC4)C[C@H]12 [Metabolite M7, 17-keto DCDQ]					Estimated plasma concentration in dogs ([2]; 2 hr, dog 2): BQL; Chromatographic distribution of radioactivity in dog plasma ([2]; 4 hr, dog 1): 6.9%; Estimated plasma concentration in dogs ([2]; 8 hr, dog 1): BQL; Estimated plasma concentration in dogs ([2]; 24 hr, dog 3): BQL; concentration at 4 h ([2]; 4 hr, dog 1): 34.5 ng/mL; concentration at 24 h ([2]; 24 hr, dog 2): 73.6 ng/mL

Compound	Chromatographic distribution of radioactivity in dog urine ([1]; 24-48 hr, Mean) [%]	Chromatographic distribution of radioactivity in dog urine ([1]; 24-48 hr, dog 1) [%]	Chromatographic distribution of radioactivity in dog urine ([1]; 24-48 hr, dog 2) [%]	Chromatographic distribution of radioactivity in dog urine ([1]; 24-48 hr, dog 3) [%]	Chromatographic distribution of radioactivity in dog urine ([1]; 24-48 hr, dog 4) [%]	Estimated plasma concentration in dogs ([2]; 2 hr, dog 1)	Chromatographic distribution of radioactivity in dog plasma ([2]; 4 hr, dog 2) [%]	Estimated plasma concentration in dogs ([2]; 8 hr, dog 2)	Estimated plasma concentration in dogs ([2]; 8 hr, dog 3)	Chromatographic distribution of radioactivity in dog plasma ([2]; 24 hr, dog 1) [%]	Chromatographic distribution of radioactivity in dog plasma ([2]; 24 hr, dog 2) [%]	Estimated plasma concentration in dogs ([2]; 48 hr, dog 1)	Estimated plasma concentration in dogs ([2]; 48 hr, dog 2)	Estimated plasma concentration in dogs ([2]; 48 hr, dog 3)	concentration at 4 h ([2]; 4 hr, dog 2) [ng/mL]	concentration at 24 h ([2]; 24 hr, dog 1) [ng/mL]	Chromatographic distribution of radioactivity in dog urine ([1]; 8-24 hr, dog 1) [%]	Chromatographic distribution of radioactivity in dog urine ([1]; 8-24 hr, dog 3) [%]	Chromatographic distribution of radioactivity in dog plasma ([2]; 2 hr, dog 2) [%]	Chromatographic distribution of radioactivity in dog plasma ([2]; 8 hr, dog 1) [%]	further results
c1cc2c3c(c1)[C@H]1CCC[C@H]1CN3CCNC2 [DCDQ, (9aR,12aS)-4,5,6,7,9,9a,10,11,12,12a-decahydro-cyclopenta[c][1,4]diazepine[6,7,1-ij]quinoline, reference compound]	3.4	3.8		3.0	6.9		21	BQL	BQL	2.6		BQL	BQL	BQL	345	39.6	9.5	11	1.9	2.7	Chromatographic distribution of radioactivity in dog plasma ([2]; 2 hr, dog 1): 11%; Chromatographic distribution of radioactivity in dog plasma ([2]; 4 hr, dog 1): 11%; Estimated plasma concentration in dogs ([2]; 24 hr, dog 2): BQL; Chromatographic distribution of radioactivity in dog plasma ([2]; 24 hr, dog 3): 2.3%; concentration at 2 h ([2]; 2 hr, dog 1): 39.6 ng/mL; concentration at 2 h ([2]; 2 hr, dog 2): 23.2 ng/mL; concentration at 4 h ([2]; 4 hr, dog 1): 52.5 ng/mL; concentration at 8 h ([2]; 8 hr, dog 1): 14.5 ng/mL; concentration at 24 h ([2]; 24 hr, dog 3): 43.8 ng/mL

From patent US20060111305A1, “Metabolites of certain [1,4]diazepino[6,7,1-ij]quinoline derivatives and methods of preparation and use thereof” (Wyeth, priority 2004, published 2006)
